In PubChem BioAssay AID1963984 (Molecular Pharmacology Branch, DTP, NCI, 2024):

Test system: 233499-124-R-J3-PDC spheroids with HUVEC/MSC, viability
Assay: Anticancer human tumor 233499-124-R-J3-PDC patient-derived colon adenocarcinoma cell line growth inhibition [PI3K]
Conditions: for IC50: curve of first compound; for viability, T/C: stronger effect = lower value
Procedure, shortened: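 We assembled tumor spheroids that included a stromal compartment of HUVEC and MSCs, then exposed them to targeted agents alone and together with PI3K pathway inhibitors. Concentration series descended by half-log from clinically achievable Cmax levels. Viability served as the endpoint.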

[1] = second compound 0.0316 µM, first compound 0.0316 µM
[2] = second compound 0.0316 µM, first compound 0.1 µM
[3] = second compound 0.0316 µM, first compound 0.316 µM
[4] = second compound 0.0316 µM, first compound 1 µM
[5] = second compound 0.0316 µM, first compound 3.16 µM
[6] = second compound 0.0316 µM, first compound 10 µM
[7] = second compound 0.1 µM, first compound 0.0316 µM
[8] = second compound 0.1 µM, first compound 0.1 µM
[9] = second compound 0.1 µM, first compound 0.316 µM
[10] = second compound 0.1 µM, first compound 1 µM
[11] = second compound 0.1 µM, first compound 3.16 µM
[12] = second compound 0.1 µM, first compound 10 µM
[13] = second compound 0.316 µM, first compound 0.0316 µM
[14] = second compound 0.316 µM, first compound 0.1 µM
[15] = second compound 0.316 µM, first compound 0.316 µM
[16] = second compound 0.316 µM, first compound 1 µM
[17] = second compound 0.316 µM, first compound 3.16 µM
[18] = second compound 0.316 µM, first compound 10 µM
[19] = second compound 1 µM, first compound 0.0316 µM
[20] = second compound 1 µM, first compound 0.1 µM
[21] = second compound 1 µM, first compound 0.316 µM
[22] = second compound 1 µM, first compound 1 µM
[23] = second compound 1 µM, first compound 3.16 µM
[24] = second compound 1 µM, first compound 10 µM
[25] = second compound 3.16 µM, first compound 0.0316 µM
[26] = second compound 3.16 µM, first compound 0.1 µM
[27] = second compound 3.16 µM, first compound 0.316 µM
[28] = second compound 3.16 µM, first compound 1 µM
[29] = second compound 3.16 µM, first compound 3.16 µM
[30] = second compound 3.16 µM, first compound 10 µM
[31] = second compound 10 µM, first compound 0.0316 µM
[32] = second compound 10 µM, first compound 0.1 µM
[33] = second compound 10 µM, first compound 0.316 µM
[34] = second compound 10 µM, first compound 1 µM
[35] = second compound 10 µM, first compound 3.16 µM
[36] = second compound 10 µM, first compound 10 µM
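Further: spheroids exposed to agents for seven days before readout.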
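Wherever viability, T/C is given: percent viability relative to DMSO vehicle control taken as 100%.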

Work on `CC(C)NCC(C(=O)N1CCN(c2ncnc3c2C(C)CC3O)CC1)c1ccc(Cl)cc1` (stereo unspecified) + Cc1nc(NC(=O)N2CCCC2C(N)=O)sc1-c1ccnc(C(C)(C)C(F)(F)F)c1 yielded an IC50 (second compound 0.0316 µM) greater than 10000 nM, an IC50 (second compound 0.1 µM) greater than 10000 nM and an IC50 (second compound 0.316 µM) greater than 10000 nM. It also gave an IC50 (second compound 1 µM) greater than 10000 nM, an IC50 (second compound 3.16 µM) of 1190 nM and an IC50 (second compound 10 µM) of less than 31.6 nM. The viability, T/C [1] was 95.8%, the viability, T/C [2] was 104% and the viability, T/C [3] was 94.6%. The viability, T/C [4] was 86.5%, the viability, T/C [5] was 94.3% and the viability, T/C [6] was 56.5%. The viability, T/C [7] was 91.3%, the viability, T/C [8] was 94.7% and the viability, T/C [9] was 96.4%. It also gave a viability, T/C [10] of 83.2%, a viability, T/C [11] of 91.6% and a viability, T/C [12] of 51.4%. The viability, T/C [13] was 87.3%, the viability, T/C [14] was 82.3% and the viability, T/C [15] was 80.7%. It also gave a viability, T/C [16] of 76.6%, a viability, T/C [17] of 74.1% and a viability, T/C [18] of 72.8%. It also gave a viability, T/C [19] of 84.5%, a viability, T/C [20] of 75% and a viability, T/C [21] of 60.7%. The viability, T/C [22] was 71.7%, the viability, T/C [23] was 73.4% and the viability, T/C [24] was 62.1%. The viability, T/C [25] was 63.1%, the viability, T/C [26] was 29.6% and the viability, T/C [27] was 69.9%. It also gave a viability, T/C [28] of 59%, a viability, T/C [29] of 33.6% and a viability, T/C [30] of 43%. It also gave a viability, T/C [31] of 22.1%, a viability, T/C [32] of 19.2% and a viability, T/C [33] of 28.3%. It also gave a viability, T/C [34] of 22.6%, a viability, T/C [35] of 31.3% and a viability, T/C [36] of 23.9%.
`Cn1cnc2c(F)c(Nc3ccc(Br)cc3Cl)c(C(=O)NOCCO)cc21` + Cc1nc(NC(=O)N2CCCC2C(N)=O)sc1-c1ccnc(C(C)(C)C(F)(F)F)c1 gave an IC50 (second compound 0.0316 µM) of 198 nM, an IC50 (second compound 0.1 µM) of 87.6 nM and an IC50 (second compound 0.316 µM) of 87.9 nM. It also gave an IC50 (second compound 1 µM) of 24.9 nM, an IC50 (second compound 3.16 µM) of less than 9.49 nM and an IC50 (second compound 10 µM) of less than 9.49 nM. The viability, T/C (second compound 0.0316 µM, first compound 0.00949 µM) was 88.1%, the viability, T/C (second compound 0.0316 µM, first compound 0.03 µM) was 84.8% and the viability, T/C (second compound 0.0316 µM, first compound 0.0949 µM) was 57%. For the same compound, the viability, T/C (second compound 0.0316 µM, first compound 0.3 µM) was 47.3%, the viability, T/C (second compound 0.0316 µM, first compound 0.949 µM) was 52% and the viability, T/C (second compound 0.0316 µM, first compound 3 µM) was 37.3%. It also gave a viability, T/C (second compound 0.1 µM, first compound 0.00949 µM) of 86.8%, a viability, T/C (second compound 0.1 µM, first compound 0.03 µM) of 68% and a viability, T/C (second compound 0.1 µM, first compound 0.0949 µM) of 39%. It also gave a viability, T/C (second compound 0.1 µM, first compound 0.3 µM) of 45.9%, a viability, T/C (second compound 0.1 µM, first compound 0.949 µM) of 28.4% and a viability, T/C (second compound 0.1 µM, first compound 3 µM) of 20.2%. It also gave a viability, T/C (second compound 0.316 µM, first compound 0.00949 µM) of 64.2%, a viability, T/C (second compound 0.316 µM, first compound 0.03 µM) of 63.5% and a viability, T/C (second compound 0.316 µM, first compound 0.0949 µM) of 35.1%. The viability, T/C (second compound 0.316 µM, first compound 0.3 µM) was 57.2%, the viability, T/C (second compound 0.316 µM, first compound 0.949 µM) was 30.3% and the viability, T/C (second compound 0.316 µM, first compound 3 µM) was 32.6%. For the same compound, the viability, T/C (second compound 1 µM, first compound 0.00949 µM) was 88.5%, the viability, T/C (second compound 1 µM, first compound 0.03 µM) was 39.5% and the viability, T/C (second compound 1 µM, first compound 0.0949 µM) was 36.1%. The viability, T/C (second compound 1 µM, first compound 0.3 µM) was 27.8%, the viability, T/C (second compound 1 µM, first compound 0.949 µM) was 29.1% and the viability, T/C (second compound 1 µM, first compound 3 µM) was 19.6%. For the same compound, the viability, T/C (second compound 3.16 µM, first compound 0.00949 µM) was 32.8%, the viability, T/C (second compound 3.16 µM, first compound 0.03 µM) was 34% and the viability, T/C (second compound 3.16 µM, first compound 0.0949 µM) was 24.2%. For the same compound, the viability, T/C (second compound 3.16 µM, first compound 0.3 µM) was 11.5%, the viability, T/C (second compound 3.16 µM, first compound 0.949 µM) was 15.7% and the viability, T/C (second compound 3.16 µM, first compound 3 µM) was 8.72%. It also gave a viability, T/C (second compound 10 µM, first compound 0.00949 µM) of 22.3%, a viability, T/C (second compound 10 µM, first compound 0.03 µM) of 19.2% and a viability, T/C (second compound 10 µM, first compound 0.0949 µM) of 8.64%. For the same compound, the viability, T/C (second compound 10 µM, first compound 0.3 µM) was 5.65%, the viability, T/C (second compound 10 µM, first compound 0.949 µM) was 7.32% and the viability, T/C (second compound 10 µM, first compound 3 µM) was 7.06%.
Compound `CNC(=O)c1ccc(N2C(=S)N(c3ccc(C#N)c(C(F)(F)F)c3)C(=O)C2(C)C)cc1F` + Cc1nc(NC(=O)N2CCCC2C(N)=O)sc1-c1ccnc(C(C)(C)C(F)(F)F)c1 has an IC50 (second compound 0.0316 µM) of 9800 nM, an IC50 (second compound 0.1 µM) greater than 10000 nM and an IC50 (second compound 0.316 µM) greater than 10000 nM. The IC50 (second compound 1 µM) was greater than 10000 nM, the IC50 (second compound 3.16 µM) was 4620 nM and the IC50 (second compound 10 µM) was less than 31.6 nM. It also gave a viability, T/C [1] of 101%, a viability, T/C [2] of 107% and a viability, T/C [3] of 80.8%. For the same compound, the viability, T/C [4] was 100%, the viability, T/C [5] was 102% and the viability, T/C [6] was 49.1%. The viability, T/C [7] was 111%, the viability, T/C [8] was 72.8% and the viability, T/C [9] was 66%. It also gave a viability, T/C [10] of 84.1%, a viability, T/C [11] of 85.9% and a viability, T/C [12] of 73.2%. The viability, T/C [13] was 95.8%, the viability, T/C [14] was 100% and the viability, T/C [15] was 70.6%. For the same compound, the viability, T/C [16] was 88.3%, the viability, T/C [17] was 85.9% and the viability, T/C [18] was 56.2%. The viability, T/C [19] was 105%, the viability, T/C [20] was 70.3% and the viability, T/C [21] was 78.9%. It also gave a viability, T/C [22] of 61.5%, a viability, T/C [23] of 60.5% and a viability, T/C [24] of 51.3%. The viability, T/C [25] was 59.1%, the viability, T/C [26] was 51.1% and the viability, T/C [27] was 61.2%. The viability, T/C [28] was 54.5%, the viability, T/C [29] was 57% and the viability, T/C [30] was 37%. The viability, T/C [31] was 24%, the viability, T/C [32] was 34.6% and the viability, T/C [33] was 28.1%. It also gave a viability, T/C [34] of 31.8%, a viability, T/C [35] of 29.3% and a viability, T/C [36] of 19.6%.
